Like-named read-outs stand apart in the source and are kept apart here.
Tests used:
[1] = molecular target: swine COX-1 (Sus scrofa, UniProt A0A287ANF9); assay: Porcine alveolar macrophage COX inhibitor assay (TXB2 read-out); type: cell-based; settings: for IC90: read-out: COX-1 IC90
Protocol: (§1) Alveolar macrophages were treated with a lipopolysaccharide (LPS), in the presence of varying amounts of inhibitors, to produce thromboxane B2 (TXB2) and/or prostaglandin E2 (PGE2). […] Each drug was tested in three different experiments on three different days (at a minimum).

[2] = molecular target: swine COX-2 (Sus scrofa, UniProt Q8SPR3); assay: Porcine alveolar macrophage COX inhibitor assay (PGE2 read-out); type: cell-based; settings: for IC90: read-out: COX-2 IC90
swine COX-2, sequence (Q8SPR3 entry or part of it): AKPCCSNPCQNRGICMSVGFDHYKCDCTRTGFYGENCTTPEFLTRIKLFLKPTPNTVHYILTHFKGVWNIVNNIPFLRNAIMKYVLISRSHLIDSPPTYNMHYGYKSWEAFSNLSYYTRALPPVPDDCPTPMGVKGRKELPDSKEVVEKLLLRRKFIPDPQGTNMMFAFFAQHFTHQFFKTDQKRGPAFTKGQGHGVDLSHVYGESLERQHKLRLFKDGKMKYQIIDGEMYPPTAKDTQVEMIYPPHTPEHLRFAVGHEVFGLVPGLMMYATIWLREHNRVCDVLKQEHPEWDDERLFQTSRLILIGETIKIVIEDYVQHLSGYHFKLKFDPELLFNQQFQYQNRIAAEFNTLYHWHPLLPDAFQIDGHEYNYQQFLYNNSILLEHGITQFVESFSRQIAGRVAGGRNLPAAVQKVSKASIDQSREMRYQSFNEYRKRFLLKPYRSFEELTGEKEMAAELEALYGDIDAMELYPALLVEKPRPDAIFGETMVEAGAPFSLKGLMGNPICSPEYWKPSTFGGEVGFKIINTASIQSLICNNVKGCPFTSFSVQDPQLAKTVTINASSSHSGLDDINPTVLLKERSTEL
Protocol: as §1

[3] = system: bradykinin; settings: Julou 1976; cited from earlier work
[4] = molecular target: T1, bovine COX-1 (Bos taurus, UniProt O62664); assay: Bovine in vitro whole blood COX inhibitor assay (TXB2); type: cell-based
T1 construct: using a bovine whole blood assay; from tissue; host or cells: heparinized bovine whole blood, protamine-treated to induce clotting
T1 sequence (O62664 25-600): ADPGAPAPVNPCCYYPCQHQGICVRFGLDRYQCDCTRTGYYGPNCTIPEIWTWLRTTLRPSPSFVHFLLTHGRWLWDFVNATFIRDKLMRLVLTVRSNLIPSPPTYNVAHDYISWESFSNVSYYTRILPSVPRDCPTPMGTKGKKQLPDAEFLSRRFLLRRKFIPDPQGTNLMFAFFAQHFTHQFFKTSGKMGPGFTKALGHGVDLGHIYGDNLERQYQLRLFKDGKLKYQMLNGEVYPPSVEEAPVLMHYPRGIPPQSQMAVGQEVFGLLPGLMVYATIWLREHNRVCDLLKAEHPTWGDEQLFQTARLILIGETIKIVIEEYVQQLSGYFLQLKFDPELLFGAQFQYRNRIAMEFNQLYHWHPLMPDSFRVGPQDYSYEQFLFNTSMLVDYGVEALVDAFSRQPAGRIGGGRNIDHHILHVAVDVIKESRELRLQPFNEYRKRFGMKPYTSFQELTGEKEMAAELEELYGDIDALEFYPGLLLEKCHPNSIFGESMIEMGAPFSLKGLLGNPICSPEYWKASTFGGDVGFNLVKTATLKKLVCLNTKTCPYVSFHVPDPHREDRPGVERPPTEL
Protocol: (§2) Briefly, heparinized blood was collected for both assays. The COX-1 assay involved treatment of the blood with protamine; to reverse the anti-coagulation effects of heparin; thus, inducing clotting and production of Thromboxane B2 (TXB2). The COX-2 assay involved treatment of blood with LPS to produce PGE2. Both assays included the presence of varying amounts of inhibitors, to inhibit the TXB2 or PGE2. […] Percent inhibition was calculated from the raw data for each drug dose based on the mean of the TXB2 or PGE2 concentrations. Then the mean % inhibition curves (% inhibition versus drug concentration) were analyzed via non-linear regression to yield individual IC50 and IC90 values.

[5] = molecular target: T2, bovine COX-2 (Bos taurus, UniProt O62698); assay: Bovine in vitro whole blood COX inhibitor assay (PGE2); type: cell-based
T2 construct: using a bovine whole blood assay; from tissue; host or cells: heparinized bovine whole blood, LPS-treated
T2 sequence (O62698 18-604): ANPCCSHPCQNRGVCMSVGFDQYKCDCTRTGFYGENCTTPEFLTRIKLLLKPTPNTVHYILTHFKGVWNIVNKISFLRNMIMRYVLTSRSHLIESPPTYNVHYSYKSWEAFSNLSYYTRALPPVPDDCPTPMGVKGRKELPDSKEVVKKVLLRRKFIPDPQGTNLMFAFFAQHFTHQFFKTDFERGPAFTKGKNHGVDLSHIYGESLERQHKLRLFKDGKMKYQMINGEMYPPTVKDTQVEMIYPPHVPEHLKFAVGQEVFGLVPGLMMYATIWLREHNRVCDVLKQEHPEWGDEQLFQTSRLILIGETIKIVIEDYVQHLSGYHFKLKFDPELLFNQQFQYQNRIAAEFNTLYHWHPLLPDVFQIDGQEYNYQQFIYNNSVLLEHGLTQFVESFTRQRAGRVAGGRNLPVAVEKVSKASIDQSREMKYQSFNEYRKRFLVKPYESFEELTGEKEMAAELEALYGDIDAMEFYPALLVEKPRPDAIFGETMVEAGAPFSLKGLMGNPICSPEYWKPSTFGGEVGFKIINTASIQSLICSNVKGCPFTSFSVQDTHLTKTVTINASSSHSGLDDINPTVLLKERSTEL
Protocol: as §2

[6] = system: LPS-induced lameness; assay: LPS-induced swine synovitis model; type: in vivo; settings: validation study, 2.2 mg/kg, IM
[7] = Hydrolysis in swine liver microsomes; type: in vitro ADME
[8] = Hydrolysis in swine plasma; type: in vitro ADME
[9] = system: swine influenza virus (SIV)-induced fever; type: in vivo
[10] = read-out: COX-1 IC50, LPS-treated porcine alveolar macrophages, TXB2 by ELISA, 21-24 hours incubation
[11] = read-out: COX-2 IC50, LPS-treated porcine alveolar macrophages, PGE2 by ELISA, 21-24 hours incubation
[12] = LPS-treated porcine alveolar macrophages, TXB2 by ELISA, 21-24 hours incubation, read-out: COX-1 IC50
[13] = LPS-treated porcine alveolar macrophages, TXB2 by ELISA, 21-24 hours incubation
[14] = LPS-treated porcine alveolar macrophages, PGE2 by ELISA, 21-24 hours incubation, read-out: COX-2 IC50
[15] = LPS-treated porcine alveolar macrophages, PGE2 by ELISA, 21-24 hours incubation

swine COX-1, sequence (A0A287ANF9 25-600): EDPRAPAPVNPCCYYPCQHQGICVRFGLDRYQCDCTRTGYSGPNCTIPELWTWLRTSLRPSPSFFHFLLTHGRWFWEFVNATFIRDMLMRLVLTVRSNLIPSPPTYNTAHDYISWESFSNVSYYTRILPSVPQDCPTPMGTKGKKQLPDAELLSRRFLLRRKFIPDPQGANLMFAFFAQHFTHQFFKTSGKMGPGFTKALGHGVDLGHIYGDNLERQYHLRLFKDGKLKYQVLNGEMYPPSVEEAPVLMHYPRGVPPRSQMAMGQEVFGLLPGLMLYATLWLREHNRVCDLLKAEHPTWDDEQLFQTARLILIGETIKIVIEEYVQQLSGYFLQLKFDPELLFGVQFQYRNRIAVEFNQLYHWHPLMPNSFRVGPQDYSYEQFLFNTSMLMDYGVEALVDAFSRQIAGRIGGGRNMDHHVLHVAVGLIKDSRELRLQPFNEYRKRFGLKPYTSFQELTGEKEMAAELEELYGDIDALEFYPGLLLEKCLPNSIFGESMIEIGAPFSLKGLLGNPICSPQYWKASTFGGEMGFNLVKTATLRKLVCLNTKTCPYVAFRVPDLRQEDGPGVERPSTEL

CC(C(=O)O)c1cccc(C(=O)c2ccccc2)c1 (racemic) [Ketoprofen, 2-(3-benzoylphenyl)-propionic acid]
IC50 [1, 10]: 0.007 µM | IC90 [1]: 0.08 µM | IC50 ([1]; read-out: IC50 against swine ortholog of COX-1, one range given for COX-1 and COX-2): 0.006 to 0.007 µM | IC50 [2, 11]: 0.006 µM | IC90 [2]: 0.08 µM | IC50 ([2]; read-out: IC50 against swine ortholog of COX-2, one range given for COX-1 and COX-2): 0.006 to 0.007 µM | functional bradykinin antagonist activity, effects greater than indomethacin [3]: 8 times | IC50 [4]: 0.03 µM | IC50 ([5]; read-out: IC50 against bovine COX-2): 0.22 µM

C[C@H](C(=O)O)c1cccc(C(=O)c2ccccc2)c1 (single isomer, unassigned) [Ketoprofen (S)-enantiomer]
IC50 [1, 12]: 0.002 µM | IC90 [1, 13]: 0.06 µM | IC50 [2, 14]: 0.001 µM | IC90 [2, 15]: 0.04 µM

CC(C(=O)O)c1ccc2c(c1)[nH]c1ccc(Cl)cc12 (stereo not shown) [Carprofen]
IC50 [1, 12]: 5.05 µM | IC90 [1]: 58.4 µM | IC50 [2, 11]: 3.17 µM | IC90 [2]: 39 µM

Cc1c(Nc2ncccc2C(=O)O)cccc1C(F)(F)F [Flunixin]
IC90 [1, 13]: 0.747 µM | IC50 [1, 10]: 0.066 µM | IC50 [2, 14]: 0.033 µM | IC90 [2, 15]: 0.507 µM | reduction of LPS-induced lameness [6]: effective at reducing LPS-induced lameness

COC(=O)C(C)c1cccc(C(=O)c2ccccc2)c1 (stereo not shown) [Formula 1, methyl 2-(3-benzoylphenyl)propanoate]
hydrolysis in swine liver microsomes [7]: hydrolyzed rapidly | IC50 [1, 10]: 0.26 µM | IC90 [1]: 1.68 µM | hydrolysis in swine plasma [8]: moderately or slowly | anti-pyretic activity continues through (post-dose) ([9]; 6 mg/kg IM in Miglyol 812): ≥ 72 h | activity compared with vehicle at t=35 hours (11 hours post-dose) ([9]; Formula 1 4, 5, 6 mg/kg IM, Banamine 2.2 mg/kg IM): remained active | fever reduction compared with vehicle ([9]; young gilts, in Miglyol 812, 4, 5, 6 mg/kg IM, 24 hours after SIV, all timepoints from 1 hour post-dose): significantly reduced fever | onset of anti-pyretic efficacy post-dose ([9]; young gilts, in Miglyol 812, 4, 5 and 6 mg/kg IM): 1 h | IC50 [2, 11]: 0.13 µM | IC90 [2]: 0.84 µM | potency relative to Meloxicam ([2]; swine COX, Table 1): about 5 times | IC50 [4]: 0.5 µM | IC90 ([4]; read-out: IC90 COX-1): 3.1 µM | IC50 [5]: 0.29 µM | IC90 ([5]; read-out: IC90 COX-2): 2.29 µM

CCOC(=O)C(C)c1cccc(C(=O)c2ccccc2)c1 (stereo not shown) [Formula 2, ethyl 2-(3-benzoylphenyl)propanoate]
hydrolysis in swine liver microsomes [7]: hydrolyzed rapidly | hydrolysis in swine plasma [8]: moderately or slowly

CC(C(=O)OCCNC(=O)c1cccnc1)c1cccc(C(=O)c2ccccc2)c1 (stereo not shown) [Formula 3, 2-(nicotinamido)ethyl 2-(3-benzoylphenyl)propanoate]
hydrolysis in swine liver microsomes [7]: hydrolyzed rapidly | IC50 [1, 10]: 0.15 µM | IC90 [1]: 4.86 µM | hydrolysis in swine plasma [8]: moderately or slowly | IC50 [2, 11]: 0.12 µM | IC90 [2]: 0.93 µM

Cc1cnc(NC(=O)C2=C(O)c3ccccc3S(=O)(=O)N2C)s1 [Meloxicam]
IC50 [1, 12]: 1.02 µM | IC90 [1]: 49.3 µM | IC50 [2, 11]: 0.56 µM | IC90 [2]: 9 µM
